Data on 29 compounds can be found in ChEMBL document CHEMBL2094269, “WEHI/Eskitis Trypanosoma b. brucei screening data”.

Where only a bound is given, the exact number is not on record here.

Data set [1] relates to Trypanosoma brucei brucei. Nature of the data set: microbe, parasite or virus in culture. The class given is functional, organism-based, STIB 795.
Description: DNDI: Inhibition of Human African Trypanosomiasis (HAT), STIB 795, in vitro
Data set [2] in a line: DNDI: Cytotoxicity against human MRC-5 lung fibroblast cells. Conditions: IC50.

As to `CCOc1ccc(OCc2ccc(C(=O)N3CCCC(C)C3)cc2)cc1` (centres undefined), the 50% inhibitory concentration (IC50) in data set [1] (Trypanosoma brucei, STIB 795) was 2.56 µM; in data set [2] it was above 41.7 µM.

Consider `Cc1ccc(C23CC4CC(CC(NC(=O)NCCN(C)C)(C4)C2)C3)cc1`, for which the IC50 in data set [1] (Trypanosoma brucei, STIB 795) was 4.01 µM; in data set [2], above 20.8 µM.

On to `COc1ccc(C(=O)O/N=C(\N)c2ccc(OC)c(OC)c2)c(OC)c1`, for which the IC50 in data set [1] (Trypanosoma brucei, STIB 795) is 1.33 µM; in data set [2] it was above 41.7 µM.

As for `Cc1cc(C)nc(C(=N)Nc2nc(-c3ccccn3)cc3ccccc23)n1`, the IC50 in data set [1] (Trypanosoma brucei, STIB 795) stood at 0.245 µM; in data set [2], 0.216 µM.

With `CCOc1c(Cl)cc(CNCCc2c[nH]c3ccccc23)cc1OC`, the IC50 in data set [1] (Trypanosoma brucei, STIB 795) was 5.09 µM; in data set [2], above 41.7 µM.

Regarding `COc1ccccc1-c1nc(SCC(=O)c2ccc(O)c(O)c2)n[nH]1`, the IC50 was 2.69 µM in data set [1] (Trypanosoma brucei, STIB 795) and above 41.7 µM in data set [2].

As to `Cc1nnc(-c2ccccc2)c(=O)n1/N=C/c1c(O)ccc2ccccc12`, the IC50 in data set [1] is 6.05 µM; in data set [1] (Trypanosoma brucei, STIB 795) it was 6.25 µM; in data set [2], above 4.17 µM.

Turning to `Oc1c(C(c2ccccc2Cl)N2CCOCC2)ccc2cccnc12` (centres undefined), the 50% inhibitory concentration (IC50) in data set [1] (Trypanosoma brucei, STIB 795) is 5.59 µM; in data set [2], above 20.8 µM.

As to `CN1CCN(C2Cc3ccccc3Sc3ccc(N(C)C)cc32)CC1` (centres undefined), the 50% inhibitory concentration (IC50) is 5.04 µM in data set [1] (Trypanosoma brucei, STIB 795) and above 41.7 µM in data set [2].

`CCOc1cc(CNCCO)cc(Cl)c1OCc1ccccc1F`: the IC50 in data set [1] (Trypanosoma brucei, STIB 795) was 2.43 µM; in data set [2], above 20.8 µM.

In the case of `CCN1/C(=C\C=C/C2C=Cc3ccccc3N2CC)C=Cc2ccccc21` (centres undefined), the IC50 in data set [1] (Trypanosoma brucei, STIB 795) worked out at 0.408 µM; in data set [2], 5.14 µM.

As to `CCN(CC)CCCCN(CCc1ccccc1)Cc1ccc(O)cc1`, the IC50 in data set [1] (Trypanosoma brucei, STIB 795) is 4.55 µM; in data set [2] it was above 41.7 µM.

With `Cc1cc(C(=O)N/N=C/c2c(O)ccc3ccccc23)c2ccccc2n1`, the IC50 is 5.24 µM in data set [1] (Trypanosoma brucei, STIB 795) and above 4.17 µM in data set [2].

As for `CCc1ccc(NS(=O)(=O)c2cc(-c3cc(C)n[nH]3)ccc2C)cc1`, the IC50 was 1.23 µM in data set [1] (Trypanosoma brucei, STIB 795) and above 4.17 µM in data set [2].

For the compound `Cc1cccc(C)c1C(O)(CC(O)CNC(C)C)c1c(C)cccc1C` (centres undefined), the IC50 in data set [1] (Trypanosoma brucei, STIB 795) was 4.92 µM; in data set [2], above 41.7 µM.

As for `CC(C)NCC(O)CC(O)(c1ccccc1)c1ccc(C(C)(C)C)cc1` (centres undefined), the IC50 in data set [1] (Trypanosoma brucei, STIB 795) is 5.12 µM; in data set [2], above 20.8 µM.

For `Cc1ccc2oc(SCC(=O)Nc3nc4ccccc4s3)nc2n1`, the IC50 was 2.16 µM in data set [1] (Trypanosoma brucei, STIB 795) and above 20.8 µM in data set [2].

`O=C(NC(=S)NNC(=S)N/N=C/c1ccccc1)c1ccccc1`: the IC50 is 4.16 µM in data set [1] (Trypanosoma brucei, STIB 795) and above 20.8 µM in data set [2].

Regarding `CN1CCN(Cc2cn(-c3ccc(Cl)cc3)c3ccc(F)cc23)CC1`, the IC50 was 5.2 µM in data set [1] (Trypanosoma brucei, STIB 795) and above 41.7 µM in data set [2].

Take `CCOc1cc2c(cc1OCC)C(/C(Cl)=C/c1ccccc1)NCC2` (centres undefined): the IC50 was 5 µM in data set [1] (Trypanosoma brucei, STIB 795) and above 41.7 µM in data set [2].

For `CC(CON1C(N)=NC(N)=NC1(C)C)Cc1cc(Cl)ccc1Cl` (centres undefined), the IC50 was 4.67 µM in data set [1] (Trypanosoma brucei, STIB 795) and above 20.8 µM in data set [2].

For `COc1ccc(/C=N/NC(=O)C(OC)c2ccccc2)c(OC)c1OC` (centres undefined), the IC50 in data set [1] (Trypanosoma brucei, STIB 795) was 2.27 µM; in data set [2], above 4.17 µM.

Turning to `COc1ccc(/C(N)=N/OC(=O)C23CC4CC(CC(C4)C2)C3)cc1OC`, the IC50 in data set [1] (Trypanosoma brucei, STIB 795) was 0.774 µM; in data set [2] it was above 41.7 µM.

Regarding `CC1(C)N=C(N)N=C(N)N1OCc1ccc(F)c(-c2ccc(F)cc2)c1`, the concentration for half-maximal inhibition (IC50) in data set [1] (Trypanosoma brucei, STIB 795) is at most 1.45 µM; in data set [2], above 2.08 µM.

Consider `COc1cccc(C2=NC(c3cccnc3)NC(c3ccccc3O)C2)c1` (centres undefined), for which the IC50 in data set [1] (Trypanosoma brucei, STIB 795) is 1.5 µM; in data set [2], above 20.8 µM.

Regarding `CS(=O)(=O)c1cccc(C(=O)Nc2nc(-c3ccccn3)cs2)c1`, the IC50 in data set [1] (Trypanosoma brucei, STIB 795) is 0.498 µM; in data set [2] it was above 10.4 µM.

Consider `CC1(C)CC(N2COc3c(cc(Cl)c4cccnc34)C2)CC(C)(C)N1`, for which the half-inhibitory concentration (IC50) in data set [1] (Trypanosoma brucei, STIB 795) was 5.53 µM; in data set [2], above 20.8 µM.

For the compound `N=C(Nc1nc(-c2ccccn2)cc2ccccc12)c1cccc(Cl)c1`, the IC50 is 6.02 µM in data set [1] (Trypanosoma brucei, STIB 795) and above 41.7 µM in data set [2].

Turning to `Cc1cc2nc(N/C(N)=N/C(=O)NC3CCCCC3)nc(C)c2cc1C`, the IC50 in data set [1] (Trypanosoma brucei, STIB 795) was 5.33 µM; in data set [2] it was above 41.7 µM.
